Values quoted from earlier work as cited in patent EP3957364A1, “A BINDING MOLECULE SPECIFICALLY BINDING TO HUMAN CD4 FOR USE IN THE TREATMENT OF PULMONARY DISEASES” (Fraunhofer-Gesellschaft zur Förderung der angewandten …, priority 2020, dated 2022).

Molecular target: CD4 (Homo sapiens, UniProt P01730)
Conditions: reported, no source named

## TbYICbEbVEDQKAcEE
  inhibition of CD4 binding of gp120 and MAX.16H5 IgG1 (or 16H5.chimlgG4): inhibit CD4 binding of both gp120 and MAX.16H5 IgG1
